Assay results published in patent publication US20230257435A1, “Wound Healing Composition and Uses Thereof” (AGENCY FOR SCIENCE, TECHNOLOGY AND RESEARCH, priority 2020, published 2023).

How the values were obtained:
[1] = system: keratinocytes and dermal fibroblasts; test: In vitro scratch wound-healing assay; type: cell-based, human and mouse
Procedure: (§1) A confluent monolayer of control and Agrin depleted cells in a 6-well plate was subjected to a unidirectional scratch using a 20 μl pipette tip. This was followed by washing with 1×PBS at room temperature and incubation in complete culture media at 37° C. and 5% CO2 with or without sAgrin used as indicated. Phase contrast images of the wound area were taken periodically at the indicated time-points. For some wound-healing migration assays, keratinocytes were cultured on either soft or stiff substrates within a stencil barrier (Nalge Nunc., Inc) for 18 h. Upon removal of the barrier, the cells were allowed to migrate and imaged using an Axiovert 200 inverted microscope at indicated time-points.

mouse skin explants = test: Mouse skin explant assay (keratinocyte outgrowth); type: cell-based; settings: soft matrix with 20 μg/ml sAgrin; MMP408 5 nM, 5 days
Procedure: Three days old ICR strain mouse pups were sacrificed and the hind skin on either side of the midline in the shoulder region was washed in 70% ethanol and excised using scalpel. The excised skin was washed in 70% ethanol and placed (dermis side down) on the pre-made gel substrates of defined stiffness, either in the absence or presence of 20 μg/ml sAgrin. The explants were allowed to adhere for 2 h before adding the keratinocyte culture medium (DMEM) containing 300 μM Ca^2+ as described previously^31. The keratinocyte outgrowth and the skin tissues regularly imaged under an Axiovert-200 inverted microscope and were subsequently fixed in 4% paraformaldehyde and immunostained for Keratin 17 antibody.
Tissue culture plates were coated with Col-T-gel (Fischer Scientific) of stiffness ranging from 0.8 KPa (soft) to 30 KPa (stiff) as per manufacturer recommendations and allowed to solidify for 40 min at 37° C. inside tissue culture incubators. Some experiments were performed with cells seeded on the poly-hydrogel plates of defined stiffness: 0.2 kPa and 16 kPa soft and hard polyhydrogels, respectively (CytoSoft, Advanced Biomatrix, Inc.,). The determination of stiffness of silicone substrates were done by the manufacturer as per previously published protocols. For certain experiments, indicated amounts of sAgrin was incorporated into the 0.8 KPa collagen gels before gelation process. Upon gelation, trypsinized cells or excised mouse skin explants were plated onto the gels of different stiffness either alone or containing sAgrin. The cells/tissues were incubated under standard culture condition with 500 μl recommended culture medium for the indicated days. The crossbow shaped micropatterns with fibronectin coated islands were generated by microlithography on a 19.5×19.5 mm coverslide from Cytoo, Inc., France. The micropatterns had surface areas of 800μ^2 or 1600μ^2, respectively. Fifty thousand cells after initial siRNA treatment was placed on the micropatterns for 4-6 h before processing them for immunofluorescence. […]

[2] = system: phosphorylated myosin light chain (pMLC); test: Actomyosin cables / pMLC activation after wound scratch; type: cell-based, human; settings: 10 μm Blebbistatin 2 h before scratch
Procedure: Indicated cells post-manipulation were washed twice with cold Phosphate buffered saline (PBS) and lysed with cold 1% NP-40 lysis buffer supplemented with 1× protease inhibitor cocktail (Roche Applied Biosciences) for 15 mins at 4° C. The cell lysate was centrifuged at 13,000 rpm for 15 min. This was followed by protein estimation using Bradford reagent. Subsequently, […] of total protein was mixed with an equal volume of 2× Laemmli sample buffer and heated at 95° C. for 5 mins. This was followed by resolution with SDS-PAGE gel. The resolved proteins were transferred onto nitrocellulose membrane and blocked in 5% skimmed milk reconstituted in 1×PBS containing 0.1% Tween-20, and probed overnight with the respective primary antibody. The membrane was then washed with 1×PBS supplemented with 0.1% Tween-20: three times at 15 min intervals. This was followed by 1 h incubation in conjugated horseradish peroxidase HRP secondary antibody (Santa Cruz Biotechnology). Post-incubation, the blot was again washed three times as above and then overlaid with enhanced chemiluminescence (ECL) substrate (Pierce/Bio-Rad) and visualized on X-ray film by image processor or digitally by Chemidoc analyzer (Bio-Rad). The density of the various bands was quantified using the Image-J software.
Cells were cultured on eight-well chamber slides or coverslips over-night. Cells were then washed twice with PBS and fixed for 15 min with 4% paraformaldehyde. Subsequently, the cells were permeabilized for 15 min with 0.1% Triton X in Phosphate buffered saline containing 1 mM Ca^+2 and 1 mM Mg^+2 (PBSCM) at room temperature. The permeabilized cells were incubated with indicated antibodies in fluorescent dilution buffer (FDB) for 1-2 h at RT or overnight at 4° C., followed by 5 washes with PBSCM and incubation with secondary antibody; Alexa Fluor (Thermo Fisher Scientific) for 1 h at RT. Slides were again washed five times with PBSCM and mounted with Vectashield medium containing DAPI. The stained cells were then imaged by a Zeiss confocal microscope. The images were processed and analyzed by Zen blue software. Intensity measurements were acquired using tool selection parameter in image analysis within the Zen blue software.
as §1

pMLC = test: Force transmission via ligand conjugated magnetic beads; type: cell-based, human; settings: siAgrin cells
Procedure: The ligands were conjugated to 4.5 μm epoxide paramagnetic beads (Dynabeads M-450 Epoxy, Thermo Fisher Scientific) according to the manufacturer's manual. Briefly, the beads were washed twice in 0.1 M sodium phosphate buffer, pH 7.4. Subsequently. 8×10^7 beads were conjugated to 20 μg sAgrin, BSA and FN per in 0.1 M sodium phosphate buffer at pH 7.4 for 16-18 h at 4° C. with gentle rotation throughout. The degree of protein conjugation to the beads was verified by a reducing SDS-PAGE gel analysis using a subset of ligand conjugated beads. The remaining beads were washed and subsequently stored in 0.1% BSA-phosphate buffered saline (PBS) pH 7.4 at 4° C. They were subsequently suspended in medium and added on the cells for 30 min at 37° C. After a brief wash with PBS to remove excess non-adherent beads, the cells were placed under a permanent neodymium magnet (J Magnetics, USA) at a distance of 6 mm apart for another 30 min that allowed a vertical tensile force in the magnitudes of ˜200 pN on the beads. The cells were then fixed in 4% paraformaldehyde, permeabilized and processed for immunofluorescence.

Molecule: COC(=O)Nc1ccc2oc3cc(S(=O)(=O)N[C@H](C(=O)O)C(C)C)ccc3c2c1 [MMP408, reference compound]
- migration of sAgrin induced K17 expressing keratinocytes ([1]; 5 nM MMP408, soft substrates and normal culture conditions): blunted the migration of sAgrin induced K17 expressing keratinocytes
- sAgrin induced K17 expressing migratory outgrowth (mouse skin explants): abruptly abolished

Molecule: Cc1ccc2c(c1)C(=O)C1(O)CCN(c3ccccc3)C1=N2 (centres unmarked) [blebbistatin, reference compound]
- sAgrin induced migration post-wound injury ([1]; 10 μm Blebbistatin, 18 h post-wounding): abolished the sAgrin induced migration
- sAgrin induced actomyosin cables [2]: abolished

B1: syndecan-4: Syndecan-4 conjugated to magnetic beads (protein, UniProt P31431 19-198, looked up)
Syndecan-4: ESIRETEVIDPQDLLEGRYFSGALPDDEDVVGPGQESDDFELSGSGDLDDLEDSMIGPEVVHPLVPLDNHIPERAGSGSQVPTEPKKLEENEVIPKRISPVEESEDVSNKVSMSSTVQGSNIFERTEVLAALIVGGIVGILFAVFLILLLMYRMKKKDEGSYDLGKKPIYKKAPTNEFYA
modifications: conjugated to magnetic beads
notes: Syndecan-4 conjugated to magnetic beads
- rescue of reduced pMLC in Agrin depleted cells by force through ligand beads (pMLC): rather insufficient to rescue myosin mechanotension
